Like-named read-outs stand apart in the source and are kept apart here.
How the values were obtained:
[1] = tested on: HEK293 cells; assay: Flow cytometry analysis of cellular penetration of complexes (trypsin/heparin treatment); assay type: cell-based, human; conditions: for penetrating activity compared with maurocalcine (factor): biotinylated variant/Strept-Cy3 complexes, FIG. 5
Experimental: The cells are incubated with maurocalcine and the derived peptides, biotinylated and complexed with […], at the final concentration of 100 nM in PBS, in the dark and at ambient temperature for 1 hour. After 2 washes in PBS (PBS, in mM: […], 6.84 Na2HPO4, 3.16 NaH2PO4, pH 7.2), and the cells were treated with trypsin (1 mg/ml, INVITROGEN), for 10 min at 37° C., in order to remove the extracellular complexes and the plasma-membrane-bound complexes. After the incubation with trypsin, the cell suspension was centrifuged at 500 g and the cells were resuspended in PBS containing 1 μg/ml of propidium iodide (SIGMA). […] The analysis was carried out on live cells, using a flow cytometer (FACScalibur, BECTON DICKINSON). The data were recorded and analyzed using appropriate software (CellQuest, BD BIOSCIENCES). The live cells were sorted according to their size and their granulosity (forward/side scattering), over a total of 10 000 events.
The analysis is carried out as described in Example 1. For the heparin treatment experiments, the complexes were prepared in a heparin solution (bovine intestine heparin, sodium salt, SIGMA) and the cells were washed twice with the heparin solution, before and after incubation with the complexes prepared in the same heparin solution.
The cellular penetration was analyzed by flow cytometry, on cells incubated with the MCab/Strept-Cy3 complexes, and then treated with trypsin, so as to remove the complexes bound to the plasma membrane by means of lipids, specific receptors or heparan sulfate glycosaminoglycan (HPSG). It has been shown that this method makes it possible to effectively study the entry of penetrating peptides into cells (Richard et al., J. Biol. Chem., 2003, 278, 585-590).

[2] = biological target: T1, RyR1 receptor (Oryctolagus cuniculus, UniProt P11716); assay: Tritiated ryanodine binding assay on heavy sarcoplasmic reticulum vesicles; conditions: biotinylated variants complexed with Strept-Cy3, increasing concentrations
T1 construct: from tissue; host or cells: heavy sarcoplasmic reticulum vesicles (skeletal muscle implied)
Experimental: The heavy sarcoplasmic reticulum vesicles are prepared according to the method of Kim et al. (J. Biol. Chem., 1983, 258, 9662-9668) modified as described in Marty et al. (J. Biol. Chem., 2000, 275, 8206-8212). The protein concentration is measured by the Biuret method.
The heavy sarcoplasmic reticulum vesicles (1 mg/ml) are incubated at 37° C. for 2 hours and 30 min, in reaction buffer comprising 5 nM [^3H]-ryanodine, 150 mM NaCl, 2 mM EGTA, 2 mM Ca^2+ (pCa=5) and 20 mM Hepes, pH 7.4. Maurocalcine, the maurocalcine-derived peptides and their biotinylated derivatives are added before the addition of the heavy sarcoplasmic reticulum vesicles. The [^3H]-ryanodine bound to the heavy sarcoplasmic vesicles is measured by filtration through Whatmann GF/B filters, followed by three washes with 5 ml of ice-cold washing buffer (150 mM NaCl, 20 mM Hepes, pH 7.4). The [^3H]-ryanodine retained on the filters is measured by liquid scintillation. The nonspecific binding is measured in the presence of […] ryanodine (20 μM). The results are given in the form of means±standard deviation. Each experiment is carried out in triplicate and repeated at least twice.

[3] = tested on: HEK293 cells; assay: Cell penetration and subcellular distribution of complexes in HEK293 cells, confocal microscopy; assay type: cell-based, human; conditions: 333 nM, 30 min
Experimental: Soluble streptavidin-cyanin 3 and streptavidin-cyanin 5 (Strept-Cy^3 and Strept-Cy^5, AMERSHAM) were mixed with 4 molar equivalents of biotinylated maurocalcine (1 mM) or biotinylated maurocalcine-derived peptide, in phosphate buffer (PBS, in mM: 136 NaCl, 1.47 Na2HPO4, 2.6 KCl, 1 CaCl2, 0.5 MgCl2, pH 7.2), for 2 hours at 37° C. and in the dark.
The human embryonic kidney cells (HEK 293 line, ATCC) are divided before confluence, by treatment with trypsin (1%), and are maintained in DMEM medium (INVITROGEN) containing 10% of inactivated fetal calf serum (INVITROGEN) and 1% of penicillin/streptomycin (INVITROGEN), in a CO2 incubator (5%). The culture medium is changed every 2 days.
The cells were incubated with maurocalcine and the derived peptides, biotinylated and complexed with streptavidin-cyanin 3 or with streptavidin-cyanin 5, […], in the dark and at ambient temperature, for 30 minutes to 1 hour. After 3 washes in PBS, the cells are fixed at ambient temperature, in a paraformaldehyde solution (4%), for 10 min, in the dark, washed in PBS and incubated for one hour with FITC-conjugated concanavalin (MOLECULAR PROBES, 5 μg/ml) in order to label the plasma membrane, and TO-PRO-3 iodide (MOLECULAR PROBES, 1 μM) in order to label the nucleus. In order to label the cytoskeleton, the cells were fixed and permeabilized with ice-cold methanol, for 10 min, washed twice in PBS and incubated with a mouse anti-alpha-tubulin antibody (1:1000, SIGMA), for 2 hours. After two washes in PBS, the cells were incubated for one hour with an anti-mouse IgG secondary antibody conjugated to Alexa 488 (1:1000, MOLECULAR PROBES). The cultures were then mounted in Vectashield mounting medium (VECTOR LABORATORIES). Preparations were observed by laser scanning confocal microscopy, using a Leica TCS-SP2 control system. The Alexa-488 and Cy3 or propidium iodide (PI) fluorescences were excited sequentially and then recorded. The Cy3 fluorescence was excited using a 543 nm helium-neon laser beam and the fluorescence emission was recorded between 554 nm and 625 nm. The images were introduced into Adobe Photoshop 7.0.

[4] = tested on: live cells; assay: Flow cytometry analysis of cellular penetration at increasing extracellular KCl (membrane potential); assay type: cell-based
Experimental: The MCab-Strept-Cy^5 complexes were prepared in solutions containing various NaCl/KCl ratios (composition in mM: 145 to 5 NaCl, 5 to 145 KCl, 2.5 CaCl2, 1.2 MgCl2, 10 glucose, 10 HEPES, pH 7.4).
The cells were washed twice with the NaCl/KCl solution used to prepare the complexes, and then incubated with maurocalcine and the derived peptides, which are biotinylated and complexed with streptavidin-cyanin 3 (MCab-Strept-Cy^3 complexes), at the final concentration of 100 nM in the same NaCl/KCl solution, in the dark and at ambient temperature for 1 hour. After 2 washes in the same NaCl/KCl buffer, the cyanin 3 fluorescence was analyzed on live cells, using a flow cytometer (FACScalibur, BECTON DICKINSON). The data were recorded and analyzed using appropriate software (CellQuest, BD BIOSCIENCES). The live cells were sorted according to their size and their granulosity (forward/side scattering), over a total of 10 000 events.

[5] = Surface pressure of monomolecular lipid films (DPPC); conditions: 1 μM
Experimental: (§1) The disialoganglioside NeuAcα2-8NeuAca2-3Galb1-aGlcb1-Cer (GD3) and dipalmitoylphosphatidylcholine (DPPC) were provided respectively by MATREYA INC and SIGMA.
The surface pressure was measured using an automatic microtensiometer (μ THROUGH SX, KIBRON INC.). The apparatus makes it possible to record kinetics of interaction of a ligand with a monomolecular film using a series of appropriate Teflon probes. All the experiments were carried out in a controlled atmosphere at 20±1. The molecular films of the lipids indicated were deposited onto an aqueous phase of ultrapure water (800 μl), using hexane:chloroform:ethanol (11:5:4, v/v/v), as described previously (Mahfoud et al., J. Biol. Chem., 2002, 277, 11292-11296). After spreading of the film, a minimum period of elapsed time of 5 min was observed, in order to allow the solvent to evaporate off. In order to measure the interaction of MCa with the lipid monolayers, various concentrations of peptides were injected into the monomolecular film with a […] Hamilton syringe and the resulting increase in pressure, produced by the incorporation of the peptide, was recorded until equilibrium was reached (maximum increase in surface pressure generally reached after an incubation of 100 to 150 min). […] The results were analyzed with Filmware 2.5 software (KIBRON INC.). […]

[6] = Surface pressure of monomolecular lipid films (GD3)
Experimental: as §1
The surface pressure was measured using an automatic microtensiometer (μ THROUGH SX, KIBRON INC.). The apparatus makes it possible to record kinetics of interaction of a ligand with a monomolecular film using a series of appropriate Teflon probes. All the experiments were carried out in a controlled atmosphere at 20±1. The molecular films of the lipids indicated were deposited onto an aqueous phase of ultrapure water (800 μl), using hexane:chloroform:ethanol (11:5:4, v/v/v), as described previously (Mahfoud et al., J. Biol. Chem., 2002, 277, 11292-11296). After spreading of the film, a minimum period of elapsed time of 5 min was observed, in order to allow the solvent to evaporate off. In order to measure the interaction of MCa with the lipid monolayers, various concentrations of peptides were injected into the monomolecular film with a […] Hamilton syringe and the resulting increase in pressure, produced by the incorporation of the peptide, was recorded until equilibrium was reached (maximum increase in surface pressure generally reached after an incubation of 100 to 150 min). For the dose-dependent interaction between MCa and GD3, the monomolecular films of GD3 were prepared at an initial surface pressure (pi) of 10 mN·m^−1. The results were analyzed with Filmware 2.5 software (KIBRON INC.). The system for measuring the surface pressures was accurate to 0.25 mN·m^−1 under the experimental conditions.

T1 sequence (P11716 whole entry): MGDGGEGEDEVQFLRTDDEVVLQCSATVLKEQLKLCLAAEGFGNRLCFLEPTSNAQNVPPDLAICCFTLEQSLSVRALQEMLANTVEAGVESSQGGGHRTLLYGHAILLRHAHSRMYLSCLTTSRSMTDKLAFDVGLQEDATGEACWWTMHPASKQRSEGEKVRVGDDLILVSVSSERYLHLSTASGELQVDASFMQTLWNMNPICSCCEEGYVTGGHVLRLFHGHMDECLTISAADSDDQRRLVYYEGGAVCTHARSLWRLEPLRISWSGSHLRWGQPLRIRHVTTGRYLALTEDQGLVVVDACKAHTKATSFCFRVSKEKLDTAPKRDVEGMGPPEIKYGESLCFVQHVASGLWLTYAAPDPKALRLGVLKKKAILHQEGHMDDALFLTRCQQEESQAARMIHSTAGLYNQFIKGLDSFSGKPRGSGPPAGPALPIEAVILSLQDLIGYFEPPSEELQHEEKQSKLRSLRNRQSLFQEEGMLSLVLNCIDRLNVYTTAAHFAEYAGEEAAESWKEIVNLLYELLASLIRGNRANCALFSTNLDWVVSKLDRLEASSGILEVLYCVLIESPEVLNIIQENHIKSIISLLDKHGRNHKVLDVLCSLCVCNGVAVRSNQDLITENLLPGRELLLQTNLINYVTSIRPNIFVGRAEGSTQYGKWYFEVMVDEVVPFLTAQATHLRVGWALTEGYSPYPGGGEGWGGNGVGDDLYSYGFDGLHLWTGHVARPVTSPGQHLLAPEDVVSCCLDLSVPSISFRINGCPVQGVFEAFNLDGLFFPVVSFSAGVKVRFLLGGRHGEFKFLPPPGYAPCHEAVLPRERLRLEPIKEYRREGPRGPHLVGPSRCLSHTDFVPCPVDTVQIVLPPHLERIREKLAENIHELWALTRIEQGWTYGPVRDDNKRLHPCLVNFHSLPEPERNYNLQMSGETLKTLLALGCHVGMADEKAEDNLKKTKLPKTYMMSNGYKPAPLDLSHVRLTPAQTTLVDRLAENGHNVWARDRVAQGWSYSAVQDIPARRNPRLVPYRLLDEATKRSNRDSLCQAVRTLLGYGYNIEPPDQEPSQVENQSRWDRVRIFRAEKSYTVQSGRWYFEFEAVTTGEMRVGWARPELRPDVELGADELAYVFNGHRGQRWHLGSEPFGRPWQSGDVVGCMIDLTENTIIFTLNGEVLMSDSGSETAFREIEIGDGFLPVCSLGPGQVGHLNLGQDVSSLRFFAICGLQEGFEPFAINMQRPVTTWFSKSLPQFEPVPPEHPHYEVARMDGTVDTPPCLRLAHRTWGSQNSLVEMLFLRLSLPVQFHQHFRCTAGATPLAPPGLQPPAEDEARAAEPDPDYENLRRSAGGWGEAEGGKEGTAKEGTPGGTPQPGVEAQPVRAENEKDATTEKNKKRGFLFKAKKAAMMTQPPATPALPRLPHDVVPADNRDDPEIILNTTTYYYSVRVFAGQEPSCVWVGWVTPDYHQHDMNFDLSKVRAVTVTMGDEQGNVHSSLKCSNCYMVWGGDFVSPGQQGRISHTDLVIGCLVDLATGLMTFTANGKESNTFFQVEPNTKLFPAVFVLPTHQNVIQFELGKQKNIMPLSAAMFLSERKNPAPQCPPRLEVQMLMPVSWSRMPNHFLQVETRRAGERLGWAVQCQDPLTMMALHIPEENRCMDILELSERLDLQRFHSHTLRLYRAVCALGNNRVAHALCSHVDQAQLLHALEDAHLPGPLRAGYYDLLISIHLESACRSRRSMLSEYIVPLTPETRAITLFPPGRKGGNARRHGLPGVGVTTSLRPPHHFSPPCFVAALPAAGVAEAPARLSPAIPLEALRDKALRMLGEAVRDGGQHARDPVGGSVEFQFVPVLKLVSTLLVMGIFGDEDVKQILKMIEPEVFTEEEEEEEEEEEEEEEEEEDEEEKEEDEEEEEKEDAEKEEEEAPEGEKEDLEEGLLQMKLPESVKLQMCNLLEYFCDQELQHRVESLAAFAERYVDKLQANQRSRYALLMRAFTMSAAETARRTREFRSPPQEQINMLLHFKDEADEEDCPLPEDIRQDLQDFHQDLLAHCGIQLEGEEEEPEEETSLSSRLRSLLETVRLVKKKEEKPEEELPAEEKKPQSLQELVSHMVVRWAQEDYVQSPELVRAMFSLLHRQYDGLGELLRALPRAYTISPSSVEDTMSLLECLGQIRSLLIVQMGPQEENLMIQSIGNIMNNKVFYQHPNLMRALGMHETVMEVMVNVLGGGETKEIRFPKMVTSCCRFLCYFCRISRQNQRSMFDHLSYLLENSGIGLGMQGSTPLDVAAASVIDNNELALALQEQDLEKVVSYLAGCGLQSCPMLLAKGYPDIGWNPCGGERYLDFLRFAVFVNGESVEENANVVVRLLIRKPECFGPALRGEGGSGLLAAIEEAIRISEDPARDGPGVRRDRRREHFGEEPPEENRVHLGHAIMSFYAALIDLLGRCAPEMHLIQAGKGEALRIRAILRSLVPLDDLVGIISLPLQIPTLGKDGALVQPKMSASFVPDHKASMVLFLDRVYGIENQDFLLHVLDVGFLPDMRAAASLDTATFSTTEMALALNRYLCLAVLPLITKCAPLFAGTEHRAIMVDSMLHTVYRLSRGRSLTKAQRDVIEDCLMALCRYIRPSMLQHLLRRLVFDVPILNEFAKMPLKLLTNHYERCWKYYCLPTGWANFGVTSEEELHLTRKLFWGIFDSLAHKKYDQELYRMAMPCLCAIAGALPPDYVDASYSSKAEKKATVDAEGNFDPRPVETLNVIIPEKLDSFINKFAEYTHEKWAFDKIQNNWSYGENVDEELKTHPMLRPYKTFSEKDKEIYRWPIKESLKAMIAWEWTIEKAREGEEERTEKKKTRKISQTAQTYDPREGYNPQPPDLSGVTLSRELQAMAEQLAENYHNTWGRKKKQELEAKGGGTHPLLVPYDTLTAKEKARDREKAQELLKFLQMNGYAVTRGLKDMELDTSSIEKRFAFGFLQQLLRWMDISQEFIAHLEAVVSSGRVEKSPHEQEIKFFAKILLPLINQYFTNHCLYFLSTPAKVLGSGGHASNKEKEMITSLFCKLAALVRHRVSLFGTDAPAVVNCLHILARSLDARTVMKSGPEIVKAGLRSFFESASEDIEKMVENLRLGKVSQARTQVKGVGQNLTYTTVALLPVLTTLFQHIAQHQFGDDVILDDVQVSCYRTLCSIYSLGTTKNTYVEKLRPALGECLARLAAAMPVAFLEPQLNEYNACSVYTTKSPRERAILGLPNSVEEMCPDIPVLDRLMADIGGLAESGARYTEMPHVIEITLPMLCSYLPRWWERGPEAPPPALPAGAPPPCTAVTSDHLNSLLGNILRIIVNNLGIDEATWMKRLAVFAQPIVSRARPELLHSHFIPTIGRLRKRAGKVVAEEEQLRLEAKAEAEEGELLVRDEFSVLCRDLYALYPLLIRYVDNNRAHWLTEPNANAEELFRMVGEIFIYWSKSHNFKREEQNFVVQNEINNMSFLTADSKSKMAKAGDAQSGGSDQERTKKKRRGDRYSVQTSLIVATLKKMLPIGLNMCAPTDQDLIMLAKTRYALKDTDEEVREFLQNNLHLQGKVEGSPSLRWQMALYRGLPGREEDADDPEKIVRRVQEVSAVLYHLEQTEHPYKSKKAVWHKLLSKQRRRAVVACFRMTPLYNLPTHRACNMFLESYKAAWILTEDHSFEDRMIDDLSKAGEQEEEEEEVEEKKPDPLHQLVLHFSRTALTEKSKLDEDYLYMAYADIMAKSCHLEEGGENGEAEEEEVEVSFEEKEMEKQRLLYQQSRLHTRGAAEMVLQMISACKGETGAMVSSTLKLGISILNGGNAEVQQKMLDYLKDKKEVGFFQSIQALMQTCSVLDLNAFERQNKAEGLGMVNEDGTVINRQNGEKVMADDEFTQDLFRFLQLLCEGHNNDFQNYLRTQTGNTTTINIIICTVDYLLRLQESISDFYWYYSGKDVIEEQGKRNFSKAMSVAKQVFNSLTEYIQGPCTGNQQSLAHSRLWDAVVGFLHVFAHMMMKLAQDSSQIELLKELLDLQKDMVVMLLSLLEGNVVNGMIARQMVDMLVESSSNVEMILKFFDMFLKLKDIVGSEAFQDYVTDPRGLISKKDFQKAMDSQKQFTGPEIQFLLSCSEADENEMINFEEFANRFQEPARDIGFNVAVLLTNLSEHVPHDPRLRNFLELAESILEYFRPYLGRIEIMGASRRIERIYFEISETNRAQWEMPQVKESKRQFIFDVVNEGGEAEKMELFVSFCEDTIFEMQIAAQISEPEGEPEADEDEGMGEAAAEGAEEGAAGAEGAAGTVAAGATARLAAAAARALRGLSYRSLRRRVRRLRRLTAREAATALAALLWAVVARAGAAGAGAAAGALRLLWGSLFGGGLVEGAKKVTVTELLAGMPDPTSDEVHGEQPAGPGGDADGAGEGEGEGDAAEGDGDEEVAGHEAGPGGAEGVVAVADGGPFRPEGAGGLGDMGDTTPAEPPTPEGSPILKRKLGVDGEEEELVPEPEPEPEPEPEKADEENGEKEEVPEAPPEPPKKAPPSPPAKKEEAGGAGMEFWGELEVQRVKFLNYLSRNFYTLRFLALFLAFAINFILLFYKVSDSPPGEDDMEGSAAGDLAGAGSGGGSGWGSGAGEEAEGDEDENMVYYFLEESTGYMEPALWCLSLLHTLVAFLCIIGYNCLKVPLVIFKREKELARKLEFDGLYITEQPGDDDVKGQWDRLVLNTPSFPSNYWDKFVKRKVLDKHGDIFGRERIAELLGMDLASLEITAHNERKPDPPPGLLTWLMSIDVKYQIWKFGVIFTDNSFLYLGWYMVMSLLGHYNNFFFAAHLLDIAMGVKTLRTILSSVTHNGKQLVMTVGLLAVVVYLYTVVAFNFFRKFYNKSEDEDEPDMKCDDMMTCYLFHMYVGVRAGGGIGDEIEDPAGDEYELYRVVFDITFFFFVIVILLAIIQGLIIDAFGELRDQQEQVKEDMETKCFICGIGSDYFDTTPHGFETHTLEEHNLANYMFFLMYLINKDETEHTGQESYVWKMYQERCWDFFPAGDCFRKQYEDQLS

GDCLPHAKLCKENKDCCSKKCKRRGTNIEKRCR (maurocalcine L7A mutant)
penetrating activity compared with maurocalcine (factor) [1]: 5
activity on the RyR1 receptor (stimulation of [3H]-ryanodine binding) [2]: less active on the RyR1 receptor than MCab/Strept-Cy3
transduction of HEK293 cell cultures by biotinylated variant/Strept-Cy3 complexes [3]: effectively transduce cell cultures

GDCLPHLKLCKENKDCCSKKCKRAGTNIEKRCR (maurocalcine R24A mutant)
penetrating activity compared with maurocalcine (factor) [1]: comparable to, or even slightly less than, maurocalcine
activity on the RyR1 receptor (stimulation of [3H]-ryanodine binding) [2]: inactive
transduction of HEK293 cell cultures by biotinylated variant/Strept-Cy3 complexes [3]: effectively transduce cell cultures

GDCLPHLKLCKENKDCCSKKCKRRGTNIEKRCR [maurocalcine]
limitation of penetration by depolarization (increase in extracellular KCl) [4]: approximately 50%
change in surface pressure of the DPPC film [5]: no significant change in surface pressure
concentration at which interaction with GD3 is detectable [6]: 100 nM
concentration at which interaction with GD3 reaches a maximum [6]: 750 nM
maximum increase in surface pressure a (kinetics fit) ([6]; 1 μM MCa, GD3 film): 22.9 mN·m^−1
time constant for the change in surface pressure b ([6]; 1 μM MCa, GD3 film): 0.0003 s⁻¹
maximum increase in surface pressure a (dose-response fit) ([6]; GD3 film, as a function of MCa concentration): 22.1 mN·m^−1
EC50 ([6]; read-out: concentration that produces 50% of the maximum effect on GD3): 500 nM
EC50 ([6]; sigmoidal fit, FIG. 11B, read-out: concentration X0 giving 50% of the maximum effect on GD3 surface pressure): 490 nM
lowest concentration at which penetration into the cells occurs ([1]; biotinylated peptide/Strept-Cy3 complexes, dose-response): 10 nM

— US8207293B2, “Peptides derived from maurocalcine used as vectors for intracellular addressing of molecules of interest” (Commissariat a l'Energie Atomique, priority 2004, dated 2012)
